The values that follow come from patent publication US9067897B2, “2,4-Diaminoquinazolines for spinal muscular atrophy” (Families of Spinal Muscular Atrophy, priority 2004, dated 2015).

Counter-ions that a name gives are not always drawn.

In one assay the test system is SMN2 promoter. Description: SMN2 promoter assay (β-lactamase reporter) in NSC-34 cells. Type of assay: cell-based, mouse. Particulars: Mus musculus, SMN2 promoter driving β-lactamase, 12 point dose curve, average of 3-6 dose curve experiments. An excerpt:
All compounds were screened using an in vitro based SMN2 promoter assay. We used NSC-34 cells, a hybrid cell line between mouse spinal cord cells and mouse neuroblastoma cells. NSC-34 cells harbor an expression plasmid containing a 3.4 kb promoter fragment of the SMN2 gene driving β-lactamase expression.
[…] […] CCF2-AM diffuses across the plasma membrane and is converted into an active β-lactamase substrate by cytoplasmic esterase. […] The fold induction is proportional to the extent of β-lactamase produced and in turn proportional to SMN2 promoter activation for a given compound relative to vehicle (DMSO) control. […] These values are used to rank activities of the compounds and derive structure activity relationship.
The term EC50 denotes the concentration at which the effect is half-maximal. The molecule `Nc1nc(N)c2c(OCc3ccco3)cccc2n1` [Example 21, 5-(Furan-2-ylmethoxy)quinazoline-2,4-diamine] yielded an EC50 of less than 1000 nM.

In turn, `Nc1nc(N)c2c(COc3ccc(F)cc3F)cccc2n1` [Example 147, 5-(2,4-Difluorophenoxymethyl)quinazoline-2,4-diamine] gave an EC50 of less than 1000 nM.

For `Nc1nc(N)c2c(-c3cccc(Cl)c3)cccc2n1` [Example 91, 5-(3-Chlorophenyl)-quinazoline-2,4-diamine], the EC50 is less than 1000 nM.

Molecule `CC(=O)Nc1nc(NC(C)=O)c2c(OCc3ccc(Cl)cc3)cccc2n1` [Example 32, N-[2-Acetylamino-5-(4-chlorobenzyloxy)quinazolin-4-yl]acetamide] came in with an EC50 of 5000 to 10000 nM.

Regarding `Nc1nc(N)c2c(OCC3CCCCC3)cccc2n1` [Example 17, 5-(Cyclohexylmethoxy)quinazoline-2,4-diamine], the EC50 was in the range of 1000 to 5000 nM.

Regarding `Cc1ccc(C#Cc2cccc3nc(N)nc(N)c23)cc1` [Example 30, 5-p-Tolylethynylquinazoline-2,4-diamine], the EC50 is less than 1000 nM.

As to `Nc1nc(N)c2c(OCC3CCN(C(=O)c4cccc(Cl)c4)CC3)cccc2n1` [Example 134, (3-Chlorophenyl)-[4-(2,4-diamino-quinazolin-5-yloxymethyl)-piperidin-1-yl]-methanone], the 50% effective concentration (EC50) is less than 1000 nM.

Regarding `Nc1nc(N)c2c(OCC3CCNCC3)cccc2n1` [Example 116, 5-(Piperidin-4-ylmethoxy)-quinazoline-2,4-diamine hydrochloride], the EC50 is less than 1000 nM.

Turning to `COC(COc1cccc2nc(N)nc(N)c12)c1ccc(Cl)cc1` (centres unmarked) [Example 165, 5-[2-(4-Chlorophenyl)-2-methoxyethoxy]quinazoline-2,4-diamine], the EC50 was less than 1000 nM.

In the case of `Nc1nc(N)c2c(Cc3ccc(Cl)cc3)cccc2n1` [Example 25, 5-(4-Chlorobenzyl)Quinazoline-2,4-Diamine], the EC50 is less than 1000 nM.

As to `CC(Oc1cccc2nc(N)nc(N)c12)c1ccncc1` (centres unmarked) [Example 48, 5-(1-Pyridin-4-ylethoxy)quinazoline-2,4-diamine], the EC50 was less than 1000 nM.

For the molecule `Nc1nc(N)c2c(OCc3ccc(Br)cc3)cccc2n1` [Example 62, 5-(4-Bromobenzyloxy)-quinazoline-2,4-diamine], the EC50 is less than 1000 nM.

Consider `Nc1nc(N)c2c(OC(CO)c3ccc(Cl)cc3)cccc2n1` (centres unmarked) [Example 164, 2-(4-Chlorophenyl)-2-(2,4-diaminoquinazolin-5-yloxy)ethanol hydrochloride], for which the EC50 is less than 1000 nM.

On to `Nc1nc(N)c2c(OCc3cc(F)cc(F)c3)cccc2n1` [Example 79, 5-(3,5-Difluorobenzyloxy)quinazoline-2,4-diamine], for which the 50% effective concentration (EC50) is less than 1000 nM.

In turn, `C[C@H](Oc1cccc2nc(N)nc(N)c12)c1ccccc1` [Example 42, 5-((S)-1-Phenylethoxy)quinazoline-2,4-diamine] gave an EC50 of less than 1000 nM.

As for `Nc1nc(N)c2c(O[C@H]3CCc4ccc(Cl)cc43)cccc2n1` [Example 149, 5-((S)-6-Chloroindan-1-yloxy)quinazoline-2,4-diamine], the EC50 is less than 1000 nM.

In turn, `COC(COc1cccc2nc(N)nc(N)c12)c1ccc2c(c1)OCO2` (centres unmarked) [Example 169, 5-(2-Benzo[1,3]dioxol-5-yl-2-methoxyethoxy)quinazoline-2,4-diamine hydrochloride] gave an EC50 of less than 1000 nM.

Consider `C[C@H](Oc1cccc2nc(N)nc(N)c12)c1cccc2ccccc12` [Example 108, 5-((S)-1-Naphthalen-1-yl-ethoxy)-quinazoline-2,4-diamine], for which the EC50 lay within 1000 to 5000 nM.

Molecule `COCOC(COc1cccc2nc(N)nc(N)c12)c1ccc2c(c1)OCO2` (centres unmarked) [Example 155, 5-(2-Benzo[1,3]dioxol-5-yl-2-methoxymethoxyethoxy)quinazoline-2,4-diamine] yielded an EC50 of less than 1000 nM.

Regarding `CC(Oc1cccc2nc(N)nc(N)c12)c1ccc(C(F)(F)F)cc1` (centres unmarked) [Example 105, 5-[1-(4-Trifluoromethylphenyl)ethoxy]quinazoline-2,4-diamine], the EC50 was less than 1000 nM.

`Nc1nc(N)c2c(OCC(O)c3cccc(Cl)c3)cccc2n1` (centres unmarked) [Example 161, 1-(3-Chlorophenyl)-2-(2,4-diaminoquinazolin-5-yloxy)ethanol]: the EC50 is less than 1000 nM.

Consider `Nc1nc(N)c2c(OCC3CC=CCC3)cccc2n1` (centres unmarked) [Example 13, 5-(Cyclohex-3-enylmethoxy)quinazoline-2,4-diamine], for which the EC50 was less than 1000 nM.

`COc1ccc(Cc2cccc3nc(N)nc(N)c23)cc1` [Example 26, 5-(4-Methoxybenzyl)Quinazoline-2,4-Diamine] gave an EC50 of less than 1000 nM.

`CC(Oc1cccc2nc(N)nc(N)c12)c1cccc2ccccc12` (centres unmarked) [Example 111, 5-(1-Naphthalen-1-yl-ethoxy)-quinazoline-2,4-diamine] returned an EC50 of 1000 to 5000 nM.

The molecule `Nc1nc(N)c2c(COc3ccccc3Cl)cccc2n1` [Example 138, 5-(2-Chlorophenoxymethyl)quinazoline-2,4-diamine] registered an EC50 of less than 1000 nM.

Molecule `Nc1nc(N)c2c(OCc3ccc(Cl)cc3)cccc2n1` [Example 2, 5-(4-Chlorobenzyloxy)quinazoline-2,4-diamine] showed a half-maximal effective concentration (EC50) of less than 1000 nM.

The molecule `Nc1nc(N)c2c(OCC3CCC3)cccc2n1` [Example 14, 5-(Cyclobutylmethoxy)quinazoline-2,4-diamine] showed an EC50 of less than 1000 nM.

The molecule `COc1ccc(OCc2cccc3nc(N)nc(N)c23)cc1` [Example 148, 5-(4-Methoxyphenoxymethyl)quinazoline-2,4-diamine] registered an EC50 of 1000 to 5000 nM.

As for `Cc1cc(Cl)ccc1OCc1cccc2nc(N)nc(N)c12` [Example 139, 5-(4-Chloro-2-methylphenoxymethyl)quinazoline-2,4-diamine], the EC50 was less than 1000 nM.

In turn, `CC(C)(Oc1cccc2nc(N)nc(N)c12)c1cccc(Cl)c1` [Example 140, 5-[1-(3-Chlorophenyl)-1-methylethoxy]quinazoline-2,4-diamine] registered an EC50 of 1000 to 5000 nM.

Consider `Nc1nc(N)c2c(OC(CO)c3ccc4c(c3)OCO4)cccc2n1` (centres unmarked) [Example 170, 2-Benzo[1,3]dioxol-5-yl-2-(2,4-diaminoquinazolin-5-yloxy)ethanol hydrochloride], for which the EC50 is less than 1000 nM.

Regarding `CN1CCCCC1COc1cccc2nc(N)nc(N)c12` (centres unmarked) [Example 117, 5-(1-Methyl-piperidin-2-ylmethoxy)-quinazoline-2,4-diamine], the concentration for a half-maximal effect (EC50) is less than 1000 nM.

Regarding `CC(Oc1cccc2nc(N)nc(N)c12)c1cccc(Cl)c1` (centres unmarked) [Example 28, 5-[1-(3-Chlorophenyl)ethoxy]quinazoline-2,4-diamine], the EC50 was less than 1000 nM.

The molecule `CC(Oc1cccc2nc(N)nc(N)c12)c1ccccc1` (centres unmarked) [Example 12, 5-(1-Phenylethoxy)quinazoline-2,4-diamine] returned an EC50 of less than 1000 nM.

In the case of `CC(Oc1cccc2nc(N)nc(N)c12)c1ccc2c(c1)OCO2` (centres unmarked) [Example 64, 5-(1-Benzo[1,3]-dioxol-5-yl-ethoxy)-quinazoline-2,4-diamine], the EC50 is less than 1000 nM.

Regarding `CC(Oc1cccc2nc(N)nc(N)c12)c1cccc(F)c1` (centres unmarked) [Example 93, 5-[1-(3-Fluorophenyl)-ethoxy]-quinazoline-2,4-diamine], the EC50 was less than 1000 nM.

`Nc1nc(N)c2c(OCc3ccccn3)cccc2n1` [Example 36, 5-(Pyridin-2-ylmethoxy)Quinazoline-2,4-diamine] came in with an EC50 of less than 1000 nM.

Molecule `Nc1nc(N)c2c(OC3CCc4c(F)cccc43)cccc2n1` (centres unmarked) [Example 80, 5-(4-Fluoroindan-1-yloxy)-quinazoline-2,4-diamine] came in with an EC50 of less than 1000 nM.

As for `CC1(C)[C@H]2CC[C@H](COc3cccc4nc(N)nc(N)c34)[C@@H]1C2` [Example 152, 5-((1S,2S,5S)-6,6-Dimethylbicyclo[3.1.1]hept-2-ylmethoxy) quinazoline-2,4-diamine], the EC50 is less than 1000 nM.

`CC(Oc1cccc2nc(N)nc(N)c12)c1c(F)cccc1F` (centres unmarked) [Example 82, 5-[1-(2,6-Difluorophenyl)-ethoxy]-quinazoline-2,4-diamine] displayed a concentration for a half-maximal effect (EC50) of less than 1000 nM.

`Nc1nc(N)c2c(OCc3ccc(F)c(F)c3)cccc2n1` [Example 87, 5-(3,4-Difluorobenzyloxy)quinazoline-2,4-diamine] showed an EC50 of less than 1000 nM.

For `COc1cccc(C(C)Oc2cccc3nc(N)nc(N)c23)c1` (centres unmarked) [Example 66, 5-[1-(3-Methoxyphenyl)-ethoxy]-quinazoline-2,4-diamine], the EC50 is less than 1000 nM.

As for `Nc1nc(N)c2c(OCC(F)(F)F)cccc2n1` [Example 3, 5-(2,2,2-Trifluoroethoxy)quinazoline-2,4-diamine], the EC50 is 1000 to 5000 nM.

`CC(C)(C)C(Oc1cccc2nc(N)nc(N)c12)c1ccc(Cl)cc1` (centres unmarked) [Example 51, 5-[1-(4-Chlorophenyl)-2,2-dimethylpropoxy]quinazoline-2,4-diamine] returned an EC50 of 5000 to 10000 nM.

Molecule `Cc1ccc(Cc2cccc3nc(N)nc(N)c23)cc1` [Example 23, 5-(4-Methylbenzyl)quinazoline-2,4-diamine] showed an EC50 of 1000 to 5000 nM.

Turning to `Cc1cccc(COc2cccc3nc(N)nc(N)c23)c1` [Example 10, 5-(3-Methylbenzyloxy)quinazoline-2,4-diamine], the 50% effective concentration (EC50) was less than 1000 nM.

`Nc1nc(N)c2c(OCc3cccc(Cl)c3)cccc2n1` [Example 5, 5-(3-Chlorobenzyloxy)quinazoline-2,4-diamine] returned a half-maximal effective concentration (EC50) of less than 1000 nM.

`CC(Oc1cccc2nc(N)nc(N)c12)c1ccc(Cl)cc1` (centres unmarked) [Example 49, 5-[1-(4-Chlorophenyl)ethoxy]quinazoline-2,4-diamine] gave a half-maximal effective concentration (EC50) of less than 1000 nM.

Turning to `Nc1nc(N)c2c(OCc3cccnc3)cccc2n1` [Example 11, 5-(Pyridin-3-ylmethoxy)quinazoline-2,4-diamine], the EC50 is less than 1000 nM.

The same assay, now with this note: SMN2 promoter driving β-lactamase, 12 point dose curve, average of 3-6 dose curve experiments.
In turn, “5-(3-Fluorobenzyloxy)quinazoline-2,4-diamine [Example 102]” yielded an EC50 of less than 1000 nM.
